Here are results for four compounds from publication PMC10304178, “Influence of Polyvinylpyrrolidone Molecular Weight and Concentration on the Precipitation Inhibition of Supersaturated Solutions of Poorly Soluble Drugs” (Pharmaceutics, 2023).

Each structure is given as a SMILES string.

The nature of data set [1]: Equilibrium solubility of the drugs in PVP solutions (shake-flask solubility test). The class given is physicochemical. As for the experimental part:
An excess amount of the drug was added to 15 mL corning tubes containing either pure 0.1 M phosphate buffer (pH 7.4) or 0.1, 0.5 and 1% (w/v) solutions of PVP K15, K30, K60 or […], respectively. […] The saturated solution and the precipitate were separated by centrifugation for 10 min at 13,000 rpm in an Eppendorf Centrifuge 5810 R (Hamburg, Germany), followed by filtration intro ultra-performance liquid chromatography (UPLC) vials using a syringe filter (33 mm, 0.45 μm) PVDF membrane (2 mL filter sample prewet volume), acquired from Merck (Darmstadt, Germany). The tests were conducted in triplicate. The concentration of drug in the respective samples was quantified by reverse-phase chromatography using a Waters Acquity Classic UPLC system (Milford, MA, USA) equipped with an automated sample injector, a binary pump and a tunable UV detector. All samples were analyzed using a Waters Acquity UPLC BEH C18 column (130 Å, 1.7 μm, 2.1 × 50 mm) (Milford, MA, USA) at a column temperature of 50 °C for ketoconazole and tadalafil and 80 °C for albendazole. The samples were injected with a volume of s 6 μL and subsequently eluted at a flow rate of 0.8 mL/min. For albendazole and tadalafil, eluent A was a mixture of 90% (v/v) sodium sulfate (60 mM), di-ammonium hydrogen phosphate (5.5 mM) and phosphoric acid (34.5 mM) in Milli-Q water (pH 2.3) and 10% (v/v) acetonitrile. For ketoconazole, eluent A was a mixture of 90% (v/v) sodium sulfate (60 mM), di-ammonium hydrogen phosphate (5.5 mM) and phosphoric acid (34.5 mM) in Milli-Q water (pH 7.2) and 10% (v/v) acetonitrile. For tadalafil, albendazole and ketoconazole, eluent B was a mixture of 20% (v/v) Milli-Q water and 80% (v/v) acetonitrile. Albendazole was quantified in the samples using UV at a wavelength of 229 nm, while tadalafil was quantified at 284 nm and ketoconazole at 240 nm.

A short description of data set [2]: Supersaturation study by solvent-shift method (µDISS Profiler): induction time and slope of time–concentration profiles. Type of data set: physicochemical. Particulars: for Influence of PVP concentration on tind and slope of the time–concentration profile / Influence of viscosity of the PVP solution on tind or slope of the time–concentration profile: multiple linear regression coefficient plot, 95% confidence interval. The text has this: Time-concentration profiles of the drugs in a supersaturated solution in the absence and presence of PVP were obtained to study the influence of the polymer on the onset of the nucleation and precipitation rate of the drug from a supersaturated solution. Supersaturation of the drug was induced by the use of a method previously developed. Briefly, a […] ProfilerTM (Billerica, MA, USA) was used to obtain in situ UV spectra in the range from 200 to 720 nm. Probe tip lengths of 5, 10 or 20 mm were selected to obtain an absorbance in the range between 0.3 and 1. The vials were stirred using a crossbar magnet at ~100 rpm at a temperature of 37 °C. […] The UV wavelength range used to quantify the drug was 267-288 nm for albendazole, 304-360 nm for ketoconazole and 299-328 nm for tadalafil. […] Standard curves were prepared with six replicates by adding aliquots of 15 μL DMSO stock solution of the drug to the dissolution medium. The initial concentration of the drug was determined by using the highest concentration of the drug for which no instantaneous precipitation occurred. Precipitation was detected by a deviation from the linearity of the standard curve, a sharp shift in the baseline in the UV spectrum or through visual inspection of the solution. To induce supersaturation, 100 μL of a DMSO stock solution of the drug was transferred into glass vials containing 10 mL solutions of PVP K15, K30, K60 or […]. […] The drug concentration was monitored in situ by the second derivative of the UV absorbance. The second derivative was used to minimize UV interferences from the precipitate. The experiments were ended when the concentrations of the respective drugs reached their equilibrium solubility. The induction time of the time-concentration profiles was used as a surrogate for the onset of the nucleation of the respective drugs, and the slope of the time-concentration profiles was used as a surrogate for the precipitation rate of the respective drugs. The induction time (tind) and the slope of the time-concentration profile were determined using TA Instruments Trios software (New Castle, DE, USA). The induction time of the time-concentration profile in minutes was estimated using the onset time function via the tangent. The slope of the time-concentration profile in (μg/mL)/min was estimated using the slope function. Multiple linear regression analysis was conducted using Umetrics MODDE11 pro (Glostrup, Denmark) to delineate the influence of PVP molecular weight and concentration on the onset of nucleation and the precipitation rate of albendazole, tadalafil and ketoconazole. The tind and slope from the time-concentration profiles were used as the response values, whereas PVP concentration and the viscosity of the PVP solutions were used as the input predictors. It should be noted that the viscosity of the PVP solutions is used instead of the molecular weights of PVP, and therefore, the impact of the viscosity of solutions of PVP is the same as that of the molecular weight. The three levels for the concentration factor were 0.1, 0.5 and 1% (w/v), and the four levels for the viscosity factor were the viscosities of the solutions of PVP K15, K30, K60 and […]. […] The equilibrium solubility, viscosity of the PVP solutions, tind and slope of time-concentration profile during supersaturation of the drugs are given as the mean ± standard deviation (SD). […] Microsoft Excel (Redmond, WA, USA) was used for this analysis. The criteria for determining statistical significance in all tests were set at p < 0.05.

Details of data set [3]: method as in PMID 29481859. To be noted: absence of polymer; cited from earlier work.
[4] abbreviates: same concentration of repeating monomer units of PVP K15, K30, K60 and K120 (effect of molecular weight), p > 0.05.
Setting [5] is: solution of 0.1% (w/v) PVP compared to the phosphate buffer pH 7.4, 37 °C, ANOVA.
[6] abbreviates: solutions of 0.5 and 1% (w/v) PVP, pH 7.4, 37 °C, ANOVA p < 0.05.
The mark [7] stands for this setting: 1 mPa.s isoviscous solutions of PVP K15, K30, K60 and K120, increasing PVP molecular weight, p < 0.05.
Setting [8] is: PVP K15, K30, K60 and K120, PVP concentration increased from 0.1 to 0.5% and again from 0.5 to 1% (w/v), ANOVA p < 0.05.
[9] abbreviates: PVP K15, K30, K60 and K120, concentration increased from 0.1 to 0.5% and again from 0.5 to 1% (w/v), p < 0.05.
Setting [10] is: PVP K15, K30, K60 and K120 compared at the same concentration (0.1, 0.5, 1% w/v), p > 0.05.
Setting [11] is: same concentrations (0.1, 0.5, 1% w/v) of PVP K15, K30, K60 and K120 (effect of molecular weight), p > 0.05.

Consider `CCCSc1ccc2nc(NC(=O)OC)[nH]c2c1` [albendazole, Albendazole], for which the figures for the Equilibrium solubility entry in data set [1] (setting [4]), in data set [1] (setting [5]) and in data set [1] (setting [6]) were “No statistically significant increase”, “no statistically significant increase” and “statistically significant increase”, respectively. Moreover, the entries for the “Slope of the time–concentration profile (precipitation rate)” value (“Slope … (precipitation rate)” for short) in data set [2] (setting [7]), in data set [2] (setting [9]) and in data set [2] (setting [10]) were “statistically significant difference”, “statistically significant difference” and “no statistically significant differences”, respectively. Moreover, the “Induction time (tind)” value in data set [2] (setting [8]) was “statistically significant increase”; in data set [2] (setting [11]), “no statistically significant differences”. Further, the “Influence of PVP concentration on tind and slope of the time–concentration profile” value in data set [2] is “significant influence”. Also, in data set [2], the “Influence of viscosity of the PVP solution on tind or slope of the time–concentration profile” value is recorded as “no significant influence”.

Regarding `NS(=O)(=O)c1cc2c(cc1Cl)N=C(CSCc1ccccc1)NS2(=O)=O` [benzthiazide], the “Onset time of nucleation” value in data set [3] was 4 min.

For the compound `CC(=O)N1CCN(c2ccc(OCC3COC(Cn4ccnc4)(c4ccc(Cl)cc4Cl)O3)cc2)CC1` (stereo not shown) [ketoconazole], the Equilibrium solubility entry in data set [1] (increasing the concentration of PVP to 1% (w/v), p < 0.05) is recorded as “further statistically significant increase”; in data set [1] (setting [4]), “No statistically significant increase”; in data set [1] (solutions of 0.1% and 0.5% (w/v) PVP compared to phosphate buffer, p < 0.05), “statistically significant increase”. For the same compound, the “Slope … (precipitation rate)” value in data set [2] (0.1% (w/v) PVP K15 compared with PVP K30, K60 and K120, p < 0.05) was “statistically significant difference”; in data set [2] (setting [7]) it was “statistically significant difference”; in data set [2] (PVP K15, K30, K60 and K120, concentration increased from 0.1 to 0.5% (w/v), p < 0.05), “statistically significant difference”. Moreover, the “Induction time (tind)” value in data set [2] (PVP K15, concentration increased from 0.1 to 0.5% and again from 0.5 to 1% (w/v), p < 0.05) is given as “statistically significant increase”; in data set [2] (PVP K30, concentration increased from 0.1 to 0.5% (w/v), p > 0.05), “no statistically significant increase”; in data set [2] (PVP K30, concentration increased from 0.5 to 1% (w/v), p < 0.05) it was “statistically significant increase”; in data set [2] (PVP K60 and K120, concentration increased from 0.1 to 0.5% and again from 0.5 to 1% (w/v), p > 0.05) it was “no statistically significant differences”; in data set [2] (setting [11]), “no statistically significant differences”. The “Influence of PVP concentration on tind and slope of the time–concentration profile” value in data set [2] is on record as “significant influence”. The “Influence of viscosity of the PVP solution on tind or slope of the time–concentration profile” value in data set [2] was “no significant influence”.

Regarding `CN1CC(=O)N2[C@H](c3ccc4c(c3)OCO4)c3[nH]c4ccccc4c3C[C@@H]2C1=O` [tadalafil], the figures for the Equilibrium solubility result in data set [1] (setting [4]), in data set [1] (setting [5]) and in data set [1] (setting [6]) were “No statistically significant increase”, “no statistically significant increase” and “statistically significant increase”, respectively. Moreover, the figures for the “Slope … (precipitation rate)” value in data set [2] (setting [7]), in data set [2] (setting [9]) and in data set [2] (setting [10]) were “statistically significant difference”, “statistically significant difference” and “no statistically significant differences”, respectively. Also, the entries for the “Induction time (tind)” value in data set [2] (setting [8]) and in data set [2] (setting [11]) were “statistically significant increase” and “no statistically significant differences”, respectively. The “Influence of PVP concentration on tind and slope of the time–concentration profile” value in data set [2] is reported as “significant influence”. Moreover, in data set [2], the “Influence of viscosity of the PVP solution on tind or slope of the time–concentration profile” value was “no significant influence”.
